According to patent EP1499590B1, “Piperidine derivatives as potassium channel blockers” (AstraZeneca AB, priority 2001, dated 2003):
Read-outs that look alike come from different tables or passages of the source.

Target: T1, human ether-a-go-go-related-gene (hERG)-encoded potassium channel (Homo sapiens, UniProt Q12809)
T1 construct: expressed in transfected cells; host or cells: Human embryonic kidney (HEK) cells, grown under Geneticin G418 selection
Test: hERG-encoded potassium channel inhibition test (whole-cell patch clamp, tail current)
Type: cell-based

[1] = HEK cells expressing the hERG-encoded channel, tail current after step from +40 mV to -50 mV, room temperature (~20 °C), read-out: IC50

T1 sequence (Q12809 whole entry): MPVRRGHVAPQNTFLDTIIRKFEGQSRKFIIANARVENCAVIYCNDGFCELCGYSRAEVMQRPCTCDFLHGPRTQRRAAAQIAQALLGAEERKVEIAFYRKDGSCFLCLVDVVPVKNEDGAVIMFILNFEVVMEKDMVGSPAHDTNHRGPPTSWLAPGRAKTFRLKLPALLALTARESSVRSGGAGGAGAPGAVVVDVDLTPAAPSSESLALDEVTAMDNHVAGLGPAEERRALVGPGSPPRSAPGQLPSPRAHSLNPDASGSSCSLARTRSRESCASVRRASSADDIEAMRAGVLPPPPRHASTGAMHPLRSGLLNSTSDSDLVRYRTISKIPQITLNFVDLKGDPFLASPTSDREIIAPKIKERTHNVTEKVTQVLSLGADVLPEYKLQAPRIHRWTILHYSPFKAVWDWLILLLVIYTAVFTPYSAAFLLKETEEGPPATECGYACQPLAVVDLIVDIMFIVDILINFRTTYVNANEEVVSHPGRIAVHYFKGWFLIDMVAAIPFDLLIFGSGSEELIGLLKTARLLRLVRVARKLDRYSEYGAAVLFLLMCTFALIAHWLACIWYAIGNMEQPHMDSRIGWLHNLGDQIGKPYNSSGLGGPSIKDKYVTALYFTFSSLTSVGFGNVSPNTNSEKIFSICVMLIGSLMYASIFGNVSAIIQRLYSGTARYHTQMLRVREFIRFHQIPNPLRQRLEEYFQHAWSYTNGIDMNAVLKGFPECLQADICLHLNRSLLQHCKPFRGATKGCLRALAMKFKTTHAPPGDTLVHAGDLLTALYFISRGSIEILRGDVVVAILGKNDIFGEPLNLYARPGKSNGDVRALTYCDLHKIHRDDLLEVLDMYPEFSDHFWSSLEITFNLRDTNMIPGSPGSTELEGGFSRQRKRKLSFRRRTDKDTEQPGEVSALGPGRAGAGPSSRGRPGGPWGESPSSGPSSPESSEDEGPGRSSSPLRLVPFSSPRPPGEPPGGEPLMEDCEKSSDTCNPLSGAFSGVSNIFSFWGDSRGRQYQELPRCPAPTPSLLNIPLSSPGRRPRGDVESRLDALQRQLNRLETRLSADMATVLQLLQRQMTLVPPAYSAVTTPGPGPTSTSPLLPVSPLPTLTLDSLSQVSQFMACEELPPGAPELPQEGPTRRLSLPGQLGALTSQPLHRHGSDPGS
Description: This assay determines the ability of a test compound to inhibit the tail current flowing through the human ether-a-go-go-related-gene (hERG)-encoded potassium channel.
One or two days before each experiment, the cells were detached from the tissue culture flasks with Accutase (TCS Biologicals) using standard tissue culture methods. They were then put onto glass coverslips resting in wells of a 12 well plate and covered with 2 ml of the growing media.
For each cell recorded, a glass coverslip containing the cells was placed at the bottom of a Perspex chamber containing bath solution (see below) at room temperature (~20 °C). This chamber was fixed to the stage of an inverted, phase-contrast microscope. Immediately after placing the coverslip in the chamber, bath solution was perfused into the chamber from a gravity-fed reservoir for 2 minutes at a rate of ~ 2 ml/min. After this time, perfusion was stopped.
A patch pipette made from borosilicate glass tubing (GC120F, Harvard Apparatus) using a P-97 micropipette puller (Sutter Instrument Co.) was filled with pipette solution (see hereinafter). The pipette was connected to the headstage of the patch clamp amplifier (Axopatch 200B, Axon Instruments) via a silver/silver chloride wire. The headstage ground was connected to the earth electrode. This consisted of a silver/silver chloride wire embedded in 3% agar made up with 0.85% sodium chloride.
The cell was recorded in the whole cell configuration of the patch clamp technique. Following "break-in", which was done at a holding potential of -80 mV (set by the amplifier), and appropriate adjustment of series resistance and capacitance controls, electrophysiology software (Clampex, Axon Instruments) was used to set a holding potential (-80 mV) and to deliver a voltage protocol. This protocol was applied every 15 seconds and consisted of a 1 s step to +40 mV followed by a I s step to -50 mV. The current response to each imposed voltage protocol was low pass filtered by the amplifier at 1 kHz. The filtered signal was then acquired, on line, by digitising this analogue signal from the amplifier with an analogue to digital converter. […]
The amplitude of the hERG-encoded potassium channel tail current following the step from +40 mV to -50 mV was recorded on-line by Clampex software (Axon Instruments). […]
The effect of each concentration of test compound was quantified by expressing the tail current amplitude in the presence of a given concentration of test compound as a percentage of that in the presence of vehicle.
Test compound potency (IC50) was determined by fitting the percentage inhibition values making up the concentration-effect to a four parameter Hill equation using a standard data-fitting package.

CC(=O)Nc1ccccc1OCC(O)CNC1CCN(Cc2ccc(Cl)cc2)CC1 (stereo not shown) [Comparison A]
IC50 [1]: 300 nM

CC(=O)Nc1ccc(Cl)cc1OCC(O)CNC1CCN(Cc2ccc(Cl)cc2)CC1 (stereo not shown) [Comparison C]
IC50 [1]: 100 nM

CC(=O)Nc1ccc(O)cc1OC[C@@](C)(O)CNC1CCN(Cc2ccc(Cl)cc2)CC1 [Example 1, 4-({(2S)-3-[2-(acetylamino)-5-hydroxyphenoxy]-2-hydroxy-2-methylpropyl}ammonio)-1-(4-chlorobenzyl)piperidinium di(2,2,2-trifluoroacetate)]
IC50: 31600 nM

COc1ccc(NC(C)=O)c(OC[C@@](C)(O)CNC2CCN(Cc3ccc(Cl)cc3)CC2)c1 [Comparison B]
IC50 [1]: 300 nM
